{"source": "patent US20160009752A1", "about": "“[…]-OXIMINO-AMINOALKYLETHERS AND PROCESS FOR PREPARATION THEREOF, USEFUL AS ANTIDIABETIC AND […] AGENTS” (COUNCIL OF SCIENTIFIC & INDUSTRIAL RESEARCH, priority 2013, published 2016)", "key": {"[1]": {"tested_on": "L6 myotubes", "experiment": "2-3H-deoxyglucose uptake by skeletal muscle cells", "assay_type": "cell-based, rat", "settings": "for 2-deoxyglucose uptake, fold vs. control: 16 h", "method": "The fold increase in 2-deoxy-glucose uptake in the presence of test compound by rat skeletal muscle cells (L-6 myotubes) was considered as % antihyperglycemic activity of the test compound which was carried out as follows. L6 myotubes were incubated with increasing concentrations of 14b and the standard drug rosiglitazone (10 μM) for 16 h. After incubation glucose uptake was assessed for 5 min in HEPES-buffered saline [140 mM NaCl, 20 mM HEPES, 5 mM KCl, 2.5 mM MgSO4, 1 mM CaCl2 (pH 7.4)] containing 10 μM 2-deoxyglucose (0.5 μCi/ml 2-[^3H]-deoxyglucose) at room temperature. Subsequently cells were rinsed with an ice-cold solution containing 0.9% NaCl and 20 mM D-glucose. To quantify the radioactivity incorporated, cells were lysed with 0.05 N NaOH and lysates were counted with scintillation fluid in a β-counter. Nonspecific uptake was determined in the presence of cytochalasin B (50 μM) during the assay, and these values were subtracted from all other values. Glucose uptake was measured in triplicate and normalized to total protein, was expressed as fold increase with respect to control cells."}, "[2]": {"experiment": "Stability studies in rat plasma samples", "assay_type": "in vitro ADME", "settings": "freeze-thaw cycle, bench top, dry residue and long term conditions", "source_text": "The plasma of the rat treated with compound 14b was then processed for the stability study. The compound is found to be stable during freeze-thaw cycle, on the bench top, dry residue and long term conditions after extraction from plasma."}, "[3]": {"experiment": "Pharmacokinetic study after oral and intravenous dose in rats", "assay_type": "in vivo", "design": "Vd/F / Vd: unit not given here", "settings": "rat", "source_text": "In order to study its bioavailability, the method of its quantitative determination in plasma matrices in rat was developed and validated. […] The method was applied in the analysis of PK samples obtained after oral and intravenous dose administration in rats."}, "[4]": {"tested_on": "db/db mice", "experiment": "db/db mice: blood glucose, OGTT, serum lipid and insulin", "assay_type": "in vivo", "settings": "for decrease in plasma insulin levels / enhancement of HDL-cholesterol level / lowering of serum triglycerides level (TG) / lowering of total cholesterol (T-Chol) level: 15 days", "method": "Male C57BL/KsJ-db/db mice (8 to 12 weeks old, 35-45 g body weight) were procured from National Animal Laboratory Centre (NALC) of Central Drug Research Institute (CDRI), Lucknow, India. Animals were housed in polypropylene cages, in controlled environment (temperature 25±2° C.; humidity 50-60%; light 300 lux at floor level with regular 12 h light-12 h dark cycle; noise level 50 decibel; ventilation 10-15 air changes per hour). They were provided with a standard laboratory diet (Dayal Industry, Barabanki, Lucknow) unless stated otherwise and had free access to water. The animals were allocated into groups of 5 animals in each. Prior to start of the test sample feeding, a vehicle training period was followed from day −3 to day 0 during which all the animals were given vehicle (1% gum acacia) at a dose volume of 10 ml/kg body weight. At day 0 the animals having blood glucose level between 180 to 300 mg/di were selected and divided into three groups containing 5 animals in each. One group was considered as control group while the other group one was treatment group. The treatment groups were given suspensions of 14b at 1.0 and 3.0 mg/kg body weight, dose, respectively. The control group was given an equal amount of vehicle. All the animals had free access to fresh water and normal diet. Random blood glucose of each mouse was checked daily at 11.00. […] Blood has been withdrawn from the retro-orbital plexus of mice eye for the estimation of lipid profile and insulin.\nIn type 2 diabetes, elevated blood glucose level due to defect in peripheral glucose disposal results in hyperglycaemia. To observe the improvement on hyperglycaemia 14b was orally gavaged for 15 consecutive days and after dosing blood glucose of control and treated group were measured."}}, "note": "Like-named read-outs stand apart in the source and are kept apart here."}
{"smiles": "C/C(=N\\OCCN1CCCCC1)[C@H]1CC[C@H]2[C@@H]3CC=C4C[C@@H](O)CC[C@]4(C)[C@H]3CC[C@]12C", "note": "[Compound 14b, 3β-Hydroxy-pregna-5-en-20-one-O-(2-piperidin-1-yl-ethyl)-oxime]", "values": [{"measurement": "2-deoxyglucose uptake, fold vs. control", "setting": "[1]; 1.0 μM", "result": "1.59±0.28", "unit": "fold"}, {"measurement": "2-deoxyglucose uptake, fold vs. control", "setting": "[1]; 2.5 μM", "result": "2.61±0.45", "unit": "fold"}, {"measurement": "2-deoxyglucose uptake, fold vs. control", "setting": "[1]; 5.0 μM", "result": "2.88±0.74", "unit": "fold"}, {"measurement": "2-deoxyglucose uptake, fold vs. control", "setting": "[1]; 10 μM", "result": "3.37±0.12", "unit": "fold"}, {"measurement": "glucose uptake in presence of cytochalasin-B", "setting": "[1]; cytochalasin-B 50 μM added to transport solution", "result": "completely blocked"}, {"measurement": "minimum concentration increasing glucose uptake to a significant level", "setting": "[1]; p<0.05", "result": 1.0, "unit": "µM"}, {"measurement": "stability after extraction from plasma", "setting": "[2]", "result": "stable"}, {"measurement": "absorption, in words", "setting": "[3]; oral dosing", "result": "slow absorption"}, {"measurement": "time at which plasma concentrations peaked post-dose", "setting": "[3]; oral dosing", "result": "≥ 10", "unit": "h"}, {"measurement": "AUC(0-t)", "setting": "[3]; plasma, intravenous route", "result": "826 ± 88.7", "unit": "ng·h/mL"}, {"measurement": "C0", "setting": "[3]; plasma, intravenous route", "result": "166 ± 90.2", "unit": "ng/mL"}, {"measurement": "MRT", "setting": "[3]; plasma, intravenous route", "result": "25.3 ± 1.99", "unit": "h"}, {"measurement": "clearance", "setting": "[3]; plasma, intravenous route", "result": 206, "unit": "mL/min/kg"}, {"measurement": "half-life", "setting": "[3]; plasma, intravenous route, read-out: T1/2 (converted)", "result": "925 ± 75", "unit": "min"}, {"measurement": "Vd", "setting": "[3]; plasma, intravenous route, read-out: Vz", "result": "268 ± 11.3"}, {"measurement": "AUC(0-inf)", "setting": "[3]; plasma, oral route", "result": "1210 ± 166", "unit": "ng·h/mL"}, {"measurement": "CL/F", "setting": "[3]; plasma, oral route", "result": 603, "unit": "mL/min/kg"}, {"measurement": "Cmax", "setting": "[3]; plasma, oral route", "result": "40.4 ± 7.03", "unit": "ng/mL"}, {"measurement": "MRT", "setting": "[3]; plasma, oral route", "result": "23.2 ± 1.31", "unit": "h"}, {"measurement": "bioavailability", "setting": "[3]; plasma, oral route", "result": 33.6, "unit": "%"}, {"measurement": "half-life", "setting": "[3]; plasma, oral route, read-out: T1/2 (converted)", "result": "856 ± 57", "unit": "min"}, {"measurement": "Vd/F", "setting": "[3]; plasma, oral route, read-out: Vz/F", "result": "739 ± 87.1"}, {"measurement": "half-life", "setting": "[3]; plasma, route not stated, read-out: elimination half-life", "result": "> 840", "unit": "min"}, {"measurement": "clearance, in words", "setting": "[3]", "result": "large clearance"}, {"measurement": "bio-availability, in words", "setting": "[3]; in vivo", "result": "good bio-availability"}, {"measurement": "decrease in plasma insulin levels", "setting": "[4]; 1.0 mg/kg oral", "result": 4.03, "unit": "%"}, {"measurement": "enhancement of HDL-cholesterol level", "setting": "[4]; 1.0 mg/kg oral", "result": 6.18, "unit": "%"}, {"measurement": "lowering of serum triglycerides level (TG)", "setting": "[4]; 1.0 mg/kg oral", "result": 13.8, "unit": "%"}, {"measurement": "lowering of total cholesterol (T-Chol) level", "setting": "[4]; 1.0 mg/kg oral", "result": 13.3, "unit": "%"}, {"measurement": "decrease in plasma insulin levels", "setting": "[4]; 3.0 mg/kg oral", "result": 8.06, "unit": "%"}, {"measurement": "enhancement of HDL-cholesterol level", "setting": "[4]; 3.0 mg/kg oral", "result": 13.6, "unit": "%"}, {"measurement": "lowering of serum triglycerides level (TG)", "setting": "[4]; 3.0 mg/kg oral", "result": 18.9, "unit": "%"}, {"measurement": "lowering of total cholesterol (T-Chol) level", "setting": "[4]; 3.0 mg/kg oral", "result": 16.7, "unit": "%"}, {"measurement": "blood glucose levels vs vehicle treated group, in words", "setting": "[4]; 1.0 and 3.0 mg/kg oral, 15 consecutive days, FIG. 8", "result": "decline in their blood glucose levels"}, {"measurement": "% Antihyperglycaemic activity (OGTT improvement)", "setting": "[4]; day 10th, 1.0 mg/kg", "result": 10.3, "unit": "%"}, {"measurement": "Blood glucose profile, 0 min post glucose load", "setting": "[4]; day 10th, 1.0 mg/kg", "result": "211.6 ± 11.8", "unit": "mg/dL"}, {"measurement": "Blood glucose profile, 30 min post glucose load", "setting": "[4]; day 10th, 1.0 mg/kg", "result": "559.8 ± 24.8", "unit": "mg/dL"}, {"measurement": "Blood glucose profile, 60 min post glucose load", "setting": "[4]; day 10th, 1.0 mg/kg", "result": "568.0 ± 12.9", "unit": "mg/dL"}, {"measurement": "Blood glucose profile, 90 min post glucose load", "setting": "[4]; day 10th, 1.0 mg/kg", "result": "502.8 ± 23.6", "unit": "mg/dL"}, {"measurement": "Blood glucose profile, 120 min post glucose load", "setting": "[4]; day 10th, 1.0 mg/kg", "result": "437.8 ± 14.1", "unit": "mg/dL"}, {"measurement": "decline in fasting blood glucose level", "setting": "[4]; day 10th, 1.0 mg/kg", "result": "~21.2", "unit": "%"}, {"measurement": "% Antihyperglycaemic activity (OGTT improvement)", "setting": "[4]; day 10th, 3.0 mg/kg", "result": 15.1, "unit": "%"}, {"measurement": "Blood glucose profile, 0 min post glucose load", "setting": "[4]; day 10th, 3.0 mg/kg", "result": "190.2 ± 12.9", "unit": "mg/dL"}, {"measurement": "Blood glucose profile, 30 min post glucose load", "setting": "[4]; day 10th, 3.0 mg/kg", "result": "542.2 ± 24.1", "unit": "mg/dL"}, {"measurement": "Blood glucose profile, 60 min post glucose load", "setting": "[4]; day 10th, 3.0 mg/kg", "result": "523.2 ± 22.7", "unit": "mg/dL"}, {"measurement": "Blood glucose profile, 90 min post glucose load", "setting": "[4]; day 10th, 3.0 mg/kg", "result": "482.0 ± 20.5", "unit": "mg/dL"}, {"measurement": "Blood glucose profile, 120 min post glucose load", "setting": "[4]; day 10th, 3.0 mg/kg", "result": "414.0 ± 9.4", "unit": "mg/dL"}, {"measurement": "decline in fasting blood glucose level", "setting": "[4]; day 10th, 3.0 mg/kg", "result": "~29.1", "unit": "%"}, {"measurement": "% Antihyperglycaemic activity (OGTT improvement)", "setting": "[4]; day 15th, 1.0 mg/kg", "result": 16.9, "unit": "%"}, {"measurement": "Blood glucose profile, 0 min post glucose load", "setting": "[4]; day 15th, 1.0 mg/kg", "result": "183.6 ± 7.86", "unit": "mg/dL"}, {"measurement": "Blood glucose profile, 30 min post glucose load", "setting": "[4]; day 15th, 1.0 mg/kg", "result": "499.2 ± 36.1", "unit": "mg/dL"}, {"measurement": "Blood glucose profile, 60 min post glucose load", "setting": "[4]; day 15th, 1.0 mg/kg", "result": "560.6 ± 14.6", "unit": "mg/dL"}, {"measurement": "Blood glucose profile, 90 min post glucose load", "setting": "[4]; day 15th, 1.0 mg/kg", "result": "468.8 ± 19.5", "unit": "mg/dL"}, {"measurement": "Blood glucose profile, 120 min post glucose load", "setting": "[4]; day 15th, 1.0 mg/kg", "result": "383.8 ± 8.46", "unit": "mg/dL"}, {"measurement": "decline in fasting blood glucose level", "setting": "[4]; day 15th, 1.0 mg/kg", "result": "around 25.5%"}, {"measurement": "% Antihyperglycaemic activity (OGTT improvement)", "setting": "[4]; day 15th, 3.0 mg/kg", "result": 24.5, "unit": "%"}, {"measurement": "Blood glucose profile, 0 min post glucose load", "setting": "[4]; day 15th, 3.0 mg/kg", "result": "160.2 ± 6.88", "unit": "mg/dL"}, {"measurement": "Blood glucose profile, 30 min post glucose load", "setting": "[4]; day 15th, 3.0 mg/kg", "result": "458.8 ± 16.6", "unit": "mg/dL"}, {"measurement": "Blood glucose profile, 60 min post glucose load", "setting": "[4]; day 15th, 3.0 mg/kg", "result": "513.2 ± 13.1", "unit": "mg/dL"}, {"measurement": "Blood glucose profile, 90 min post glucose load", "setting": "[4]; day 15th, 3.0 mg/kg", "result": "420.0 ± 13.2", "unit": "mg/dL"}, {"measurement": "Blood glucose profile, 120 min post glucose load", "setting": "[4]; day 15th, 3.0 mg/kg", "result": "348.0 ± 13.2", "unit": "mg/dL"}, {"measurement": "decline in fasting blood glucose level", "setting": "[4]; day 15th, 3.0 mg/kg", "result": "~35.1", "unit": "%"}]}
